Legend:
Assay type in all cases: cell-based, hepatitis C virus (genotype 1a-H77)
[1] = tested on: HCV replicon with a D168E mutation in a 1a-H77 background; assay: transient replicon assay, D168E mutation in 1a-H77 background; settings: Hepatitis C virus, read-out: EC50 in a transient replicon assay with a D168E mutation in a 1a-H77 background
Description: (§1) Replicon cell lines can be maintained in Dulbecco's modified Eagles medium (DMEM) containing 100 IU/ml penicillin, […] streptomycin (Invitrogen), […] G418 (Invitrogen) and 10% (v/v) fetal bovine serum (FBS). Replicon-containing cells can be seeded into 96 well plates at a density of 5000 cells per well in 100 μl DMEM containing 5% FBS. The next day, the compound can be initially diluted in dimethyl sulfoxide (DMSO) to generate a 200× stock of the inhibitor in a series of 8 half-log dilutions. The dilution series can then be diluted 100-fold in the medium containing 5% FBS. One hundred microliters of medium with the inhibitor can be added to each well of the overnight cell culture plate already containing 100 μl of DMEM with 5% FBS. In assays where the protein binding effect on inhibitor potency is assessed, the medium from the overnight cell culture plates can be replaced with 200 μl DMEM containing 40% human plasma (Innovative Research) plus 5% FBS as well as compound. The cells can be grown for 4 days in tissue culture incubators. The inhibitory effects of compounds against the replicons can be determined by measuring either the level of luciferase or HCV RNA. The luciferase assay can be conducted using a Luciferase Assay System kit (Promega) following the manufacturer's instructions. Briefly, the cell culture medium is removed and wells are washed with 200 μl of phosphate-buffered saline. To each well Passive Lysis buffer (Promega, Wis.) is added and the plates are incubated for 30 min with rocking to lyse the cells. Luciferin solution (50 μl, Promega) is added, and luciferase activity is measured with a Victor II luminometer (Perkin-Elmer). To determine HCV RNA levels, RNA extractions can be performed using the CellsDirect kit (Invitrogen), and the HCV RNA copy number can be measured using the SuperScript III Platinum One-Step qRT-PCR system (Invitrogen) and primers specific to the HCV 5′ nontranslated region. Cytotoxicity can be determined by the 3-[4,5-dimethylhiazol-2-yl]-2,5-diphenyltetrazolium bromide (MTT) colorimetric assay as follows. Replicon cells is plated in 96-well plates (4000 cells per well), the next day compound dilutions are added as in the activity assay, and the cells are grown in the presence of the inhibitors for 4 days. The MTT solution is diluted in DMEM containing 5% FBS and 60 μl of the solution is added to the cells. After 4 hrs, the cells are solubilized by the addition of 30 […]μl SDS (20% in 0.02 N HCl). The plates are incubated overnight and the optical density can be measured at 570 nm. To determine compounds' EC50 and TD50, luciferase, RNA inhibition and MTT data can be analyzed using the GraphPad Prism 4 software (equation: sigmoidal dose-response—variable slope).
(§2) The 1a-H77 replicon for transient assays further differs from the replicon in the stable cell line in that it contains NS2 through NS5B in the second cistron. The 1b-N strain replicon contains NS3 through NS5B in the second cistron, with adaptive mutations E1202G in NS3 and S2204I in NS5A. Mutagenesis can be performed using the Stratagene QuikChange XL II site-directed mutagenesis kit. Mutants' sequences can be confirmed, plasmids can be linearized with Xba I restriction enzyme and used as template for in vitro transcription reactions to make mutant replicon RNA for transient transfections. In vitro transcription can be performed with the T7 Megascript kit (Ambion).
(§3) Transient replicon transfections can be performed essentially as described by Mo et al. (Antimicrob Agents Chemother (2005) 49(10):4305-4314) with slight modifications. Fifteen micrograms of template RNA can be used to electroporate 3×10^6 cells in a 200 μl volume in a 0.2 cm cuvette. The cells used for transient transfections can be Huh7 cells obtained by curing replicon-containing cells with IFN (Mo et al., supra). Electroporation can be done with a Gene Pulser II (Bio-Rad, CA) at 480V and 25 μF, using two manual pulses. […]

[2] = tested on: HCV replicon with a D168V mutation in a 1a-H77 background; assay: transient replicon assay, D168V mutation in 1a-H77 background; settings: Hepatitis C virus, read-out: EC50 in a transient replicon assay with a D168V mutation in a 1a-H77 background
Description: as §1, §2, §3

[3] = tested on: HCV replicon with a R155K mutation in a 1a-H77 background; assay: transient replicon assay, R155K mutation in 1a-H77 background; settings: Hepatitis C virus, read-out: EC50 in a transient replicon assay with a R155K mutation in a 1a-H77 background
Description: as §1, §2, §3

Row | Structure (SMILES) | EC50 [1] [nM] | EC50 [2] [nM] | EC50 [3] [nM]
1 | CC(C)(C)OC(=O)N[C@H]1CCCCC/C=C\[C@@H]2C[C@@]2(C(=O)NS(=O)(=O)C2CC2)NC(=O)[C@@H]2C[C@@H](Oc3nc4cc(F)ccc4nc3C(F)(F)F)CN2C1=O [Example 106, tert-butyl (2R,6S,13aS,14aR,16aS,Z)-14a-(cyclopropylsulfonylcarbamoyl)-2-(7-fluoro-3-(trifluoromethyl)quinoxalin-2-yloxy)-5,16-dioxo-1,2,3,5,6,7,8,9,10,11,13a,14,14a,15,16,16a-hexadecahydrocyclopropa[e]pyrrolo[1,2-a][1,4]diazacyclopentadecin-6-ylcarbamate] | 3 to 20 | 50 to 250 | < 1
2 | Cc1onc(C(=O)N[C@H]2CCCCC/C=C\[C@@H]3C[C@@]3(C(=O)NS(=O)(=O)C3(C)CC3)NC(=O)[C@@H]3C[C@@H](Oc4nc5cc(F)ccc5nc4C(F)(F)F)CN3C2=O)c1C [Example 108, N-((2R,6S,13aS,14aR,16aS,Z)-2-(7-fluoro-3-(trifluoromethyl)quinoxalin-2-yloxy)-14a-(1-methylcyclopropylsulfonylcarbamoyl)-5,16-dioxo-1,2,3,5,6,7,8,9,10,11,13a,14,14a,15,16,16a-hexadecahydrocyclopropa[e]pyrrolo[1,2-a][1,4]diazacyclopentadecin-6-yl)-4,5-dimethylisoxazole-3-carboxamide] | < 3 | < 25 | < 1
3 | CC1(S(=O)(=O)NC(=O)[C@@]23C[C@H]2/C=C\CCCCC[C@H](NC(=O)c2ccon2)C(=O)N2C[C@H](Oc4nc5cc(F)ccc5nc4C(F)(F)F)C[C@H]2C(=O)N3)CC1 [Example 109, N-((2R,6S,13aS,14aR,16aS,Z)-2-(7-fluoro-3-(trifluoromethyl)quinoxalin-2-yloxy)-14a-(1-methylcyclopropylsulfonylcarbamoyl)-5,16-dioxo-1,2,3,5,6,7,8,9,10,11,13a,14,14a,15,16,16a-hexadecahydrocyclopropa[e]pyrrolo[1,2-a][1,4]diazacyclopentadecin-6-yl)isoxazole-3-carboxamide] | < 3 | < 25 | < 1
4 | CC(C)(C)OC(=O)N[C@H]1CCCCC/C=C\[C@@H]2C[C@@]2(C(=O)NS(=O)(=O)C2(C)CC2)NC(=O)[C@@H]2C[C@@H](Oc3nc4cc(F)ccc4nc3C(F)(F)F)CN2C1=O [Example 110, tert-butyl (2R,6S,13aS,14aR,16aS,Z)-2-(7-fluoro-3-(trifluoromethyl)quinoxalin-2-yloxy)-14a-(1-methylcyclopropylsulfonylcarbamoyl)-5,16-dioxo-1,2,3,5,6,7,8,9,10,11,13a,14,14a,15,16,16a-hexadecahydrocyclopropa[e]pyrrolo[1,2-a][1,4]diazacyclopentadecin-6-ylcarbamate] | 3 to 20 | 25 to 50 | < 1
5 | CC(C)(C)OC(=O)N[C@H]1CCCCC/C=C\[C@@H]2C[C@@]2(C(=O)NS(=O)(=O)C2CC2)NC(=O)[C@@H]2C[C@@H](Oc3nc4c(F)cccc4nc3C(F)(F)F)CN2C1=O [Example 112, tert-butyl (2R,6S,13aS,14aR,16aS,Z)-14a-(cyclopropylsulfonylcarbamoyl)-2-(8-fluoro-3-(trifluoromethyl)quinoxalin-2-yloxy)-5,16-dioxo-1,2,3,5,6,7,8,9,10,11,13a,14,14a,15,16,16a-hexadecahydrocyclopropa[e]pyrrolo[1,2-a][1,4]diazacyclopentadecin-6-ylcarbamate] | 3 to 20 | 25 to 50 | < 1
6 | Cc1cc(C(=O)N[C@H]2CCCCC/C=C\[C@@H]3C[C@@]3(C(=O)NS(=O)(=O)C3CC3)NC(=O)[C@@H]3C[C@@H](Oc4nc5c(F)cccc5nc4C(F)(F)F)CN3C2=O)no1 [Example 113, N-((2R,6S,13aS,14aR,16aS,Z)-14a-(cyclopropylsulfonylcarbamoyl)-2-(8-fluoro-3-(trifluoromethyl)quinoxalin-2-yloxy)-5,16-dioxo-1,2,3,5,6,7,8,9,10,11,13a,14,14a,15,16,16a-hexadecahydrocyclopropa[e]pyrrolo[1,2-a][1,4]diazacyclopentadecin-6-yl)-5-methylisoxazole-3-carboxamide] | < 3 | < 25 | < 1

Reference: patent publication US9493506B2 (Enanta Pharmaceuticals, Inc., priority 2010, dated 2016)
